The record followed here is patent US20260327242A1, “Platform and Scaffold for FAP Targeting Agents” (Erasmus University Medical Center Rotterdam, priority 2022, published 2026).

For series [1], the system named is U-87 cells. Put plainly: Cytotoxicity assay in FAP+ U-87 cells (resazurin). In kind it is cell-based. As to the method: In 96-well plates, U-87 cells (3×10^3) were seeded in each well and incubated at 37° C. and 5% CO2 for 24 h. The medium was removed and the wells were washed once with PBS. The cytotoxic drug (positive control) or the eFAP conjugate containing the drug were prepared at various concentrations (i.e., 1, 10, 100, 1000 nM) in DMEM culture medium, supplemented with 2 mM L-glutamine, 10% FBS, 50 units/mL penicillin, and 50 μg/mL streptomycin. Medium was used as a negative control. Cells were incubated with 100 μL of the tested compounds for 1, 24, 48, and 72 h. After incubation, medium was removed and each well was washed once with PBS. Next, 100 μL of 10% resazurin solution in culture medium was added to each well and incubated for 2.5 h. Fluorescence measurements were carried out using a microplate reader at 544 nm excitation and 590 nm emission.

Series [2] addresses T1, mouse FAP (mFAP) (Mus musculus, UniProt P97321).
T1 sequence (P97321 26-761 limits assumed): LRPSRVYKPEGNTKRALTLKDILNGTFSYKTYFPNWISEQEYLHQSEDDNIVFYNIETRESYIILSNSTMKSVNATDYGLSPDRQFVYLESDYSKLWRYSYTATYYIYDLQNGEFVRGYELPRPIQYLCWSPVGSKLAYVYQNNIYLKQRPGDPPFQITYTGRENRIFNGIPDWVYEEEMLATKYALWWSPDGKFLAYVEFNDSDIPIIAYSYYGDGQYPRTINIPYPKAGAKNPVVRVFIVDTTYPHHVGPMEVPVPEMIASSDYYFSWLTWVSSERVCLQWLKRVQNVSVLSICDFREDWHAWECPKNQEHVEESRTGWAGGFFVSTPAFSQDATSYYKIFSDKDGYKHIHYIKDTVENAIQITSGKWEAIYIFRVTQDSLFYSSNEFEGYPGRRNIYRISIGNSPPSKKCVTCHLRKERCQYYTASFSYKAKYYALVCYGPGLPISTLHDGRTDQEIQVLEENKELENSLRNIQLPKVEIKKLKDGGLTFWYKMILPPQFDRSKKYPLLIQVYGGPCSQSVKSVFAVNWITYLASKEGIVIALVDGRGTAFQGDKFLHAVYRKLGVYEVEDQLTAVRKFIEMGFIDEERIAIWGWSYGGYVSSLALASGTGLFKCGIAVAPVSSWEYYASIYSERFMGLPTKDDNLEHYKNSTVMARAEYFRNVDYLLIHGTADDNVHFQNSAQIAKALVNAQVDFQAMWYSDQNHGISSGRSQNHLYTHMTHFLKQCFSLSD
Put plainly: In vitro inhibition assay on mouse FAP (Z-GP-AMC substrate). In kind it is biochemical. The conditions noted are these: 20 μM Z-GP-AMC, 20 nM FAP, pH 7.4, room temperature. As to the method: (§1) Enzymatic activity of human FAP (hFAP) and mouse FAP (mFAP) on the Z-GP-AMC substrate was measured at room temperature on a Hidex microplate reader by monitoring the fluorescence at an excitation wavelength of 360 nm and an emission wavelength of 465 nm. The reaction mixture contained 20 μM substrate, 20 nM FAP, assay buffer (50 mM Tris, 100 mM NaCl, 1 mM EDTA, pH 7.4) and tested compound (serial dilution from 10-6 to 10^−12) in a total volume of 50 μL.
Results with FAPI-46 obtained in the same assay is included for comparison.

Series [3] deals with T2, human FAP (hFAP) (Homo sapiens, UniProt Q12884).
T2 sequence (Q12884 26-760 limits assumed): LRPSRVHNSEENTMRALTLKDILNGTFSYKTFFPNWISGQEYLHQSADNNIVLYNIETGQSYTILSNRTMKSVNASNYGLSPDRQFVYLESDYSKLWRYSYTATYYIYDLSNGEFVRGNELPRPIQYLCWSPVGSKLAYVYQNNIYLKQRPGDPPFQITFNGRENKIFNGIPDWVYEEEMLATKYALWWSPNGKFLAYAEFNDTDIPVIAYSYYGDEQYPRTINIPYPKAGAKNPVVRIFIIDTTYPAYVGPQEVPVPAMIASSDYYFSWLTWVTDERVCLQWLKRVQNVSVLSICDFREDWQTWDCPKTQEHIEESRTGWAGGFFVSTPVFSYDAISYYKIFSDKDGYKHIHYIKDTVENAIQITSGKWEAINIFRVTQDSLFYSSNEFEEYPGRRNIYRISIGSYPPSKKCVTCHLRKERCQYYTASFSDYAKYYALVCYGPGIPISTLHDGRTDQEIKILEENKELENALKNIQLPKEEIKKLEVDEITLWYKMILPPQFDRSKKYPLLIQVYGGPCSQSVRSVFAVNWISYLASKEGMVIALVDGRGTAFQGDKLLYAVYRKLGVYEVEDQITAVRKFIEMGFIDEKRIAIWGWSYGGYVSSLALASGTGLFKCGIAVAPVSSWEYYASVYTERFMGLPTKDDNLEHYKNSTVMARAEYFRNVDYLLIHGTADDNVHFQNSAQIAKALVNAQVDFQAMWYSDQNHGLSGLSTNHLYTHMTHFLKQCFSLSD
The series is described as follows: In vitro inhibition assay on human FAP (Z-GP-AMC substrate). The series is classed as biochemical. The following applies: 20 μM Z-GP-AMC, 20 nM FAP, pH 7.4, room temperature. The procedure: as §1

For `COc1cc2cc(c1Cl)N(C)C(=O)C[C@H](OC(=O)[C@H](C)N(C)C(=O)CCS)[C@]1(C)O[C@H]1[C@H](C)[C@@H]1C[C@@](O)(NC(=O)O1)[C@H](OC)/C=C/C=C(\C)C2` [DM1, Mertansine, reference compound], the cell viability (usually a per cent measure of how many cells are alive, often set against a control) in series [1] (FAP+ U-87 cells, single dose of eFAP-18 (1 μM) compared with the parent drug DM1) was 40%.

Consider `COc1cc2cc(c1Cl)N(C)C(=O)CC(OC(=O)C(C)N(C)C(=O)CCSSCCC(=O)NCCCOc1cccc3c(C(=O)NCC(=O)N4CC(F)(F)CC4C#N)ccnc13)C1(C)OC1C(C)C1CC(O)(NC(=O)O1)C(OC)C=CC=C(C)C2` [eFAP-18, (1^4S,1^6S,3^2S,3^3S,2R,4S,10E,12E,14R)-8^6-chloro-1^4-hydroxy-8^5,14-dimethoxy-3^3,2,7,10-tetramethyl-1^2,6-dioxo-7-aza-1(6,4)-oxazinana-3(2,3)-oxirana-8(1,3)-benzenacyclotetradecaphane-10,12-dien-4-yl N-(3-((3-((3-((4-((2-((S)-2-cyano-4,4-difluoropyrrolidin-1-yl)-2-oxoethyl)carbamoyl)quinolin-8-yl)oxy)propyl)amino)-3-oxopropyl)disulfaneyl)propanoyl)-N-methyl-L-alaninate], for which the half-inhibitory concentration (IC50) (commonly the concentration at which inhibition is half-maximal) in series [2] was determined as 2 ± 0.1 nM; in series [3], 2.6 ± 0.8 nM. The viability (as a rule, a read-out of living cells in per cent, often relative to untreated cells) at 1 µM in series [1] (Homo sapiens, U-87 MG, read-out: cell viability) is around 25%.

`CC1(C)C(=CC=C2CCCC(C=CC3=[N+](CCCCS(=O)(=O)[O-])c4ccc(S(=O)(=O)O)cc4C3(C)C)=C2Oc2ccc(S(=O)(=O)O)cc2)N(CCCCCC(=O)NCC(O)CC(=O)NCC(O)CC(=O)NCCCOc2cccc3c(C(=O)NCC(=O)N4CC(F)(F)C[C@H]4C#N)ccnc23)c2ccc(S(=O)(=O)O)cc21` (stereo partly drawn) [eFAP-24, 2-((E)-2-((E)-3-(2-((E)-1-(6-((4-((4-((3-((4-((2-((S)-2-cyano-4,4-difluoropyrrolidin-1-yl)-2-oxoethyl)carbamoyl)quinolin-8-yl)oxy)propyl)amino)-2-hydroxy-4-oxobutyl)amino)-2-hydroxy-4-oxobutyl)amino)-6-oxohexyl)-3,3-dimethyl-5-sulfonatoindolin-2-ylidene)ethylidene)-2-(4-sulfonatophenoxy)cyclohex-1-en-1-yl)vinyl)-3,3-dimethyl-1-(4-sulfonatobutyl)-3H-indol-1-ium-5-sulfonate]: the IC50 in series [2] turned out to be 2.96 ± 0.15 nM; in series [3], 3.04 ± 0.18 nM.

Take `CC1(C)C(/C=C/C2=C(Oc3ccc(S(=O)(=O)O)cc3)C(=C/C=C3/N(CCCCCC(=O)NCC(O)CC(=O)NCCCOc4cccc5c(C(=O)NCC(=O)N6CC(F)(F)C[C@H]6C#N)ccnc45)c4ccc(S(=O)(=O)O)cc4C3(C)C)/CCC2)=[N+](CCCCS(=O)(=O)[O-])c2ccc(S(=O)(=O)O)cc21` (stereo partly drawn) [eFAP-27, 4-(2-((E)-2-((E)-3-(2-((E)-1-(6-((4-((3-((4-((2-((S)-2-cyano-4,4-difluoropyrrolidin-1-yl)-2-oxoethyl)carbamoyl)quinolin-8-yl)oxy)propyl)amino)-2-hydroxy-4-oxobutyl)amino)-6-oxohexyl)-3,3-dimethyl-5-sulfoindolin-2-ylidene)ethylidene)-2-(4-sulfophenoxy)cyclohex-1-en-1-yl)vinyl)-3,3-dimethyl-5-sulfo-3H-indol-1-ium-1-yl)butane-1-sulfonate]: the half-inhibitory concentration (IC50) in series [2] amounted to 3.72 ± 0.11 nM; in series [3] it was 4.01 ± 0.28 nM.
